Here are results for 40 compounds from patent publication US6815460B2, “Process for preparing prodrugs of benzenesulfonamide-containing cox-2 inhibitors” (Pharmacia Corporation, priority 1996, dated 2004).

In general, melting point refers to the temperature of the solid-liquid transition.

Counter-ions that a name gives are not always drawn.

`Cc1onc(-c2ccccc2)c1-c1ccc(S(=O)(=O)NC(=O)C(C)(C)C)cc1` [Example 21, 2,2-Dimethyl-N-[[4-(5-methyl-3-phenylisoxazol-4-yl)phenyl]sulfonyl]propanamide]: the melting point fell in the range of 190.5 to 191.1 °C. Regarding `CCC(=O)[N-]S(=O)(=O)c1ccc(-n2cc(C(F)(F)F)nc2-c2cccnc2C)cc1.[Na+]` [Example 85, N-[[4-(2-(2-Methylpyridin-3-yl)-4-trifluoromethylimidazol-1-yl]phenyl]sulfonyl]propanamide, Sodium Salt], the melting point is 298 °C (dec.). Compound `CCCC(=O)NS(=O)(=O)c1ccc(-c2c(-c3ccccc3)noc2C(F)F)cc1` [Example 56, N-[[4-[5-(Difluoromethyl)-3-phenylisoxazol-4-yl]phenyl]sulfonyl]butanamide] registered a melting point of 154.9 to 155.9 °C. The same measure for `CC(=O)NS(=O)(=O)c1ccc(-n2cc(C(F)(F)F)nc2-c2cccnc2)cc1` [Example 1, N-[[4-[2-(3-Pyridinyl)-4-(trifluoromethyl)-1H-imidazol-1-yl]phenyl]sulfonyl]acetamide]: 244 to 246 °C; for `CC(=O)NS(=O)(=O)c1ccc(-n2nc(C(F)(F)F)cc2-c2ccc(Cl)cc2)cc1.[Na]`: 269.8 to 272 °C. Regarding `Cc1onc(-c2ccccc2)c1-c1ccc(S(=O)(=O)NC(=O)c2ccccc2)cc1` [Example 19, N-[[4-(5-Methyl-3-phenylisoxazol-4-yl)phenyl]sulfonyl]benzamide], the melting point was 208.8 to 210.2 °C.

In the case of `Cc1onc(-c2ccccc2)c1-c1ccc(S(=O)(=O)NCC(=O)O)cc1.O=C(O)O` [Example 79, N-[[4-(5-Methyl-3-phenylisoxazol-4-yl)phenyl]sulfonyl]glycine], the melting point lay within 242 to 248 °C. Take `CC(=O)NS(=O)(=O)c1ccc(-n2nc(C(F)(F)F)cc2-c2ccc(Cl)cc2)cc1` [Example 37, N-[[4-[5-(4-Chlorophenyl)-3-(trifluoromethyl)-1H-pyrazol-1-yl]phenyl]sulfonyl]acetamide]: the melting point is 161.9 to 162.7 °C.

`COCCC(=O)NS(=O)(=O)c1ccc(-c2c(-c3ccccc3)noc2C)cc1` [Example 29, 3-Methoxy-N-[[4-(5-methyl-3-phenylisoxazol-4-yl)phenyl]sulfonyl]propanamide] gave a melting point of 139.7 to 140.9 °C.

Regarding `COc1ccc(-c2cc(C(F)F)nn2-c2ccc(S(=O)(=O)NC(C)=O)cc2)cc1F` [Example 46, N-[[4-[3-(Difluoromethyl)-5-(3-fluoro-4-methoxyphenyl)-1H-pyrazol-1-yl]phenyl]sulfonyl]acetamide], the melting point is 173 to 175 °C. As to `Cc1onc(-c2ccccc2)c1-c1ccc(S(=O)(=O)NC(=O)C(C)C)cc1` [Example 15, 2-Methyl-N-[[4-(5-methyl-3-phenylisoxazol-4-yl)phenyl]sulfonyl]propanamide], the melting point was in the range of 115 to 115.6 °C. Take `CCC(=O)NS(=O)(=O)c1ccc(-c2c(C)c(C)nn2-c2ccccc2)cc1` [Example 68, N-[[4-[3,4-Dimethyl-1-phenyl-1H-pyrazol-5-yl]phenyl]sulfonyl]propanamide]: the melting point lay within 187.4 to 188.7 °C. For the compound `CCOCC(=O)NS(=O)(=O)c1ccc(-c2c(-c3ccccc3)noc2C)cc1` [Example 31, 2-Ethoxy-N-[[4-(5-methyl-3-phenylisoxazol-4-yl)phenyl]sulfonyl]acetamide], the melting point fell in the range of 131.3 to 132.2 °C. With `CNS(=O)(=O)c1ccc(C2=C(c3ccc(F)cc3)CCC2)cc1` [Example 64, 4-[2-(4-Fluorophenyl)cyclopenten-1-yl]-N-methylbenzenesulfonamide], the melting point fell in the range of 121 to 122 °C. `CC(=O)NS(=O)(=O)c1ccc(-c2c(-c3ccccc3)noc2CO)cc1` [Example 74, N-[[4-[5-Hydroxymethyl-3-phenylisoxaxzol-4-yl]phenyl]sulfonyl]acetamide] came in with a melting point of 94 to 103 °C. As for `CCC(=O)NS(=O)(=O)c1ccc(-c2c(-c3ccccc3)noc2C(F)F)cc1` [Example 54, N-[[4-[5-(Difluoromethyl)-3-phenylisoxazol-4-yl]phenyl]sulfonyl]propanamide], the melting point fell in the range of 136.9 to 141 °C. With `CC(=O)NS(=O)(=O)c1ccc(-n2cc(C(F)(F)F)nc2-c2cccnc2C)cc1` [Example 5, N-[[4-[2-(2-Methylpyridin-3-yl)-4-(trifluoromethyl)-1H-imidazol-1-yl]phenyl]sulfonyl]acetamide], the melting point lay in the range of 243 to 245 °C.

The compound `Cc1onc(-c2ccccc2)c1-c1ccc(S(=O)(=O)NC(=O)CN)cc1` [Example 81, 2-Amino-N-[[4-(5-methyl-3-phenylisoxazol-4-yl)phenyl]sulfonyl]acetamide] showed a melting point of 230.7 to 234.7 °C. Compound `CC(=O)[N-]S(=O)(=O)c1ccc(-n2cc(C(F)(F)F)nc2-c2cncc(C)c2)cc1.[Na+]` [Example 4, N-[[4-[2-(5-Methylpyridin-3-yl)-4-(trifluoromethyl)-1H-imidazol-1-yl]phenyl]sulfonyl]acetamide, Sodium Salt] showed a melting point of 278 to 281 °C. In turn, `CCOCC(=O)NS(=O)(=O)c1ccc(-c2c(-c3ccccc3)noc2C)cc1.[Na]` showed a melting point of 207.2 to 210 °C. Turning to `CC(=O)NS(=O)(=O)c1ccc(-n2cc(C(F)(F)F)nc2-c2cncc(C)c2)cc1` [Example 3, N-[[4-[2-(5-Methylpyridin-3-yl)-4-(trifluoromethyl)-1H-imidazol-1-yl]phenyl]sulfonyl]acetamide], the melting point was 268 to 270 °C. Compound `CC(=O)NS(=O)(=O)c1ccc(-c2oc(C)nc2-c2ccccc2)cc1` [Example 48, N-[[4-(2-Methyl-4-phenyloxazol-5-yl)phenyl]sulfonyl]acetamide] yielded a melting point of 220.7 to 221 °C.

The compound `CCC(=O)NS(=O)(=O)c1ccc(-n2nc(C(F)(F)F)cc2-c2ccc(Cl)cc2)cc1` [Example 33, N-[[4-[5-(4-Chlorophenyl)-3-(trifluoromethyl)-1H-pyrazol-1-yl]phenyl]sulfonyl]propanamide] came in with a melting point of 77.9 to 85.1 °C. Regarding `COc1ccc2c(c1F)CSc1c(C(F)F)nn(-c3ccc(S(=O)(=O)NC(C)=O)cc3)c1-2.[Na]`, the melting point was more than 300 °C. `CCCC(=O)NS(=O)(=O)c1ccc(-c2c(-c3ccccc3)noc2C)cc1` (as salt: sodium) [Example 25, N-[[4-(5-Methyl-3-phenylisoxazol-4-yl)phenyl]sulfonyl]butanamide, Sodium Salt]: the melting point is 273.5 to 277.7 °C. With `Cc1onc(-c2ccccc2)c1-c1ccc(S(=O)(=O)NC(=O)CCC(=O)O)cc1` [Example 58, 4-[[[4-(5-Methyl-3-phenylisoxazol-4-yl)phenyl]sulfonyl]amino]-4-oxobutanoic Acid], the melting point lay in the range of 158.4 to 165.4 °C. Compound `CC(=O)NS(=O)(=O)c1ccc(C2=C(c3ccc(F)c(Cl)c3)CCC2)cc1` [Example 65, N-[[4-[2-(3-Chloro-4-fluorophenyl)cyclopenten-1-yl]phenyl]sulfonyl]acetamide] came in with a melting point of 127 to 129 °C. The same measure for `CC(=O)NS(=O)(=O)c1ccc(-c2c(-c3ccccc3)noc2C)cc1.[K]`: 279.7 to 283.7 °C; for `Cc1onc(-c2ccccc2)c1-c1ccc(S(=O)(=O)NC(=O)OC(C)(C)C)cc1` [Example 62, 1,1-Dimethylethyl N-[[4-(5-methyl-3-phenylisoxazol-4-yl)phenyl]sulfonyl]carbamate]: 168 to 171 °C; for `Cc1onc(-c2ccccc2)c1-c1ccc(S(=O)(=O)NC=O)cc1` [Example 60, N-[[4-(5-Methyl-3-phenylisoxazol-4-yl)phenyl]sulfonyl]formamide]: 111 to 122 °C.

Take `CCC(=O)NS(=O)(=O)c1ccc(-c2c(-c3ccccc3)noc2CO)cc1.[Na]`: the melting point lay in the range of 153.5 to 157.1 °C. `CCCC(=O)NS(=O)(=O)c1ccc(-c2c(-c3ccccc3)noc2C)cc1` [Example 24, N-[[4-(5-Methyl-3-phenylisoxazol-4-yl)phenyl]sulfonyl]butanamide] returned a melting point of 173.2 °C. The compound `CCCC(=O)NS(=O)(=O)c1ccc(-n2cc(C(F)(F)F)nc2-c2cncc(C)c2)cc1` [Example 7, N-[[4-[2-(5-Methylpyridin-3-yl)-4-(trifluoromethyl)-1H-imidazol-1-yl]phenyl]sulfonyl]butanamide] yielded a melting point of 203 to 204 °C.

For `CC(=O)NS(=O)(=O)c1ccc(-n2cc(C(F)(F)F)nc2-c2cc(C)cc(Cl)c2)cc1` [Example 11, N-[[4-[2-(3-Chloro-5-methylphenyl)-4-(trifluoromethyl)-1H-imidazol-1-yl]phenyl]sulfonyl]acetamide], the melting point fell in the range of 232 to 235 °C. In the case of `CCCC(=O)NS(=O)(=O)c1ccc(-n2cc(C(F)(F)F)nc2-c2cccnc2C)cc1` [Example 9, N-[[4-[2-(2-Methylpyridin-3-yl)-4-(trifluoromethyl)-1H-imidazol-1-yl]phenyl]sulfonyl]butanamide], the melting point lay within 250 to 252 °C.

`CCC(=O)NS(=O)(=O)c1ccc(-n2cc(C(F)(F)F)nc2-c2cccnc2C)cc1` [Example 84, N-[[4-[2-(2-Methylpyridin-3-yl)-4-trifluoromethylimidazol-1-yl]phenyl]sulfonyl]propanamide] came in with a melting point of 217 to 218 °C.

`CCC(=O)NS(=O)(=O)c1ccc(C2=C(c3ccccc3)COC2=O)cc1` [Example 83]: the melting point fell in the range of 182.3 to 183.4 °C.

In turn, `CC(=O)NS(=O)(=O)c1ccc(-c2c(-c3cccc(F)c3)noc2C)cc1` (as salt: sodium) [Example 13, N-[[4-[3-(3-Fluorophenyl)-5-methylisoxazol-4-yl]phenyl]sulfonyl]acetamide] returned a melting point of 112 to 131 °C. Turning to `Cc1onc(-c2ccccc2)c1-c1ccc(S(=O)(=O)NCC(=O)[O-])cc1.[Na+]` [Example 80, N-[[4-(5-Methyl-3-phenylisoxazol-4-yl)phenyl]sulfonyl]glycine, Sodium Salt], the melting point was 216 °C (dec.). Compound `COC(=O)CCC(=O)NS(=O)(=O)c1ccc(-c2c(-c3ccccc3)noc2C)cc1` [Example 23, Methyl 4-[[[4-(5-methyl-3-phenylisoxazol-4-yl]phenyl]sulfonyl]amino]-4-oxobutanoate] registered a melting point of 114.9 to 117.7 °C.
